# In PMC9698358, “The Discovery of Novel Ferulic Acid Derivatives Incorporating Substituted Isopropanolamine Moieties as Potential Tobacco Mosaic Virus Helicase Inhibitors” (International Journal of Molecular Sciences, 2022):
# Key:
# TMV helicase [1] = molecular target: T1, TMV helicase (Tobacco mosaic virus, UniProt Q9IBK4); experiment: microscale thermophoresis; assay type: binding
# T1 construct: helicase domain of the 126/183 kDa replicase
# TMV helicase [2] = molecular target: T1, TMV helicase; experiment: ATPase activity, malachite green phosphate release; assay type: biochemical
# T1 sequence (Q9IBK4 entry or part of it): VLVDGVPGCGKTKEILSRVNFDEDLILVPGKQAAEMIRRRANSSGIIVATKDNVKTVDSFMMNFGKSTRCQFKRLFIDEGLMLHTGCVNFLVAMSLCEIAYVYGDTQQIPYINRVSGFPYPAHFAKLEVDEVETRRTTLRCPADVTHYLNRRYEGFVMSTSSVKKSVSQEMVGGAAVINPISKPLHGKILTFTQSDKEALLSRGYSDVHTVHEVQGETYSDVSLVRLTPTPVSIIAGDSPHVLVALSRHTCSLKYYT
SMILES,Kd (TMV helicase [1]) [µM],inhibition at 200 µM (TMV helicase [2]) [%]
COC(=O)/C=C/c1ccc(OCC(O)CN2CCN(Cc3ccccc3C)CC2)c(OC)c1 (stereo not shown) [A31],13.5,47
"COc1cc(/C=C/C(=O)O)ccc1O [FA, 3-methoxy-4-hydroxycinnamic acid]",,26.4
COC(=O)/C=C/c1ccc(OC[C@H](O)CN2CCOCC2)c(OC)c1 [R-A19],5.4,50.6
COC(=O)/C=C/c1ccc(OC[C@@H](O)CN2CCOCC2)c(OC)c1 [S-A19],22.8,44.5
